Legend:
PsiM [1] = target: T1, PsiM (Psilocybe cubensis, UniProt P0DPA9); experiment: isothermal titration calorimetry; format: binding
T1 construct: full length, E. coli; Crystals: pJF45, His6 cut off by thrombin, vector-derived TEV site kept at N-terminus; Wild-type ITC and activity: His6-tagged without thrombin/TEV sites (pFB13); N247M: made from pJF45 template in pET-28a

PsiM [2] = target: T1, PsiM; experiment: UHPLC-MS methyltransferase assay, Michaelis-Menten; format: biochemical; conditions: 1 mM SAM, 50 mM Tris pH 8.4, 28 °C; first methyl transfer
[3] = system: CNCCc1c[nH]c2cccc(OP(=O)(O)O)c12; experiment: UHPLC-MS methyltransferase assay, Michaelis-Menten; format: biochemical, Psilocybe cubensis; conditions: 1 mM SAM, 50 mM Tris pH 8.4, 28 °C, second methyl transfer

Compound | Kd (PsiM [1]) [µM] | Km (PsiM [2]) [µM] | Km [3] [µM] | kcat [3] [s⁻¹]
Nc1ncnc2c1ncn2[C@@H]1O[C@H](CSCC[C@H](N)C(=O)O)[C@@H](O)[C@H]1O [SAH] | 66 ± 49 |  |  | 
CNCCc1c[nH]c2cccc(OP(=O)(O)O)c12 [baeocystin] | 77.2 ± 3.5 |  |  | 
NCCc1c[nH]c2cccc(OP(=O)(O)O)c12 [norbaeocystin] | 35.7 ± 5.4 | 575 ± 100 |  | 
PsiM (Psilocybe cubensis) |  |  | 492 ± 154 | 0.001 ± 0.00017

Source: PMC10978996 (Nature Communications, 2024)
